Source: PubChem BioAssay (NCI)
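Grown in 96-well plates, cells were treated for 48 hours with each compound at five concentrations. Insufficient inhibition: endpoint recorded as highest concentration tested. At the GI50, growth is halved. TGI: concentration producing complete growth inhibition.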

Assays:
Test in all cases: growth of human tumour cells (NCI), 48 h
DLD-1 colon = test system: DLD-1 colon
HOP-92 NSCLC = test system: HOP-92 NSCLC
M19-MEL melanoma = test system: M19-MEL melanoma
OVCAR-5 ovarian = test system: OVCAR-5 ovarian
OVCAR-8 ovarian = test system: OVCAR-8 ovarian
SF-295 CNS = test system: SF-295 CNS
SNB-78 CNS = test system: SNB-78 CNS
SW-620 colon = test system: SW-620 colon
UACC-62 melanoma = test system: UACC-62 melanoma
KM20L2 colon = test system: KM20L2 colon
SR leukemia = test system: SR leukemia
PC-3 prostate = test system: PC-3 prostate

Compound	TGI (DLD-1 colon) [µM]	TGI (HOP-92 NSCLC) [µM]	TGI (M19-MEL melanoma) [µM]	TGI (OVCAR-5 ovarian) [µM]	TGI (OVCAR-8 ovarian) [µM]	TGI (SF-295 CNS) [µM]	TGI (SNB-78 CNS) [µM]	TGI (SW-620 colon) [µM]	TGI (UACC-62 melanoma) [µM]	TGI (KM20L2 colon) [µM]	GI50 (OVCAR-5 ovarian) [µM]	TGI (SR leukemia) [µM]	TGI (PC-3 prostate) [µM]	GI50 (HOP-92 NSCLC) [µM]	GI50 (OVCAR-8 ovarian) [µM]	GI50 (SF-295 CNS) [µM]	GI50 (SW-620 colon) [µM]	GI50 (UACC-62 melanoma) [µM]
O=C1c2ccc(O)cc2C(=O)c2ccc(O)cc21	> 100	> 100	> 100	> 100	> 100	> 100	> 100	> 100	> 100									
COc1cc2c(c(OC)c1OC)-c1ccc(SC)c(=O)cc1[C@@H](NCc1ccc(C#N)cc1)CC2		> 100	> 100	> 100			> 100	> 100		0.00388	3.15	18.5						
CC(C)(C)N=NNc1cn(C2OC(CO)C(O)C2O)c(=O)[nH]c1=O (centres undefined)	> 100	> 100	> 100	> 100	> 100	> 100	> 100	34.7	> 100	> 100		50.8						
COc1cc2c(cc1OC)C(C(CO)CO)N(CC(O)CCl)CC2 (centres undefined)	> 100	> 100	> 100	> 100	> 100	> 100	> 100	> 100	> 100	> 100								
Cc1c(Cl)c2ccccc2n1S(=O)(=O)c1ccccc1	> 100	54.2		> 100	> 100	> 100		> 100	> 100	> 100		> 100						
CCc1cc(Cc2cc(Cl)c(NC(=O)C(=O)C3NC(=O)NC3=O)c(CC)c2)cc(Cl)c1NC(=O)C(=O)C1NC(=O)NC1=O (centres undefined)		> 100	> 100	> 100	58.6	> 100	> 100	24.1	> 100	> 100		> 100						
Cc1ccc(S(=O)(=O)N/N=C(\c2nc3ccc(Cl)cc3[nH]c2=O)C(O)c2cccc([N+](=O)[O-])c2)cc1 (centres undefined)	> 100	> 100	> 100	> 100	> 100	> 100	> 100	> 100	> 100	> 100		> 100						
C[C@]12CCC(=O)C=C1CC[C@@H]1[C@@H]2[C@@H](O)C[C@@]2(C)[C@H]1CC[C@]2(O)C(=O)COC(=O)COCC(=O)O	> 100	> 100	> 100	> 100	> 100	> 100	> 100	> 100	> 100	> 100								
O=C(c1ccc(Cl)cc1)c1ccc(OCCCOc2ccc(C(=O)c3ccc(Cl)cc3)cc2)cc1	> 100	> 100	> 100	> 100	> 100	> 100		> 100	> 100	> 100		> 100						
O=c1[nH]c(=O)n(C2OC(COP(=O)(O)OP(=O)(O)OC3OC(CO)C(O)C(O)C3O)C(O)C2O)cc1F (centres undefined)	> 100	9.62	59.4	5.33	> 100	> 100	> 100	> 100	3.16	> 100		> 21.6						
O=C1Nc2ccccc2C12CCNC2Cc1ccccc1 (centres undefined)	> 100	> 100	> 100	> 100	> 100	> 100		> 100	> 100	> 100								
O=S(=O)(CCBr)CCBr	8.66	20.9	15	26.7	5.68	29.8		5.74	11	23.2								
NC(CCCC(N)P(=O)(O)c1ccccc1)P(=O)(O)c1ccccc1 (centres undefined)	> 261	> 261	> 261		> 261	> 261	> 261	> 261	> 261	> 261		> 261						
COc1ccc(-c2cc(=O)c3cc4c(cc3[nH]2)OCO4)cc1OC	> 100	> 100	> 100		> 100	> 100	> 100	> 100	> 100	> 100		> 100						
CCOC(=O)C1(C/C=C(/C)Cl)CCCC1=O (centres undefined)	> 100		> 100	> 100	> 100	> 100			> 100	> 100		45.7						
N#CC1=C(N)n2c(s/c(=C\c3ccc(Cl)cc3)c2=O)=C(c2nc3ccccc3[nH]2)C1c1ccc(Cl)cc1 (centres undefined)	15.4	0.954	9.15	3.66	3.78			3.03	2.92	6.06		5.85						
CCSc1sc(=Nc2ccc(N=c3sc(C)c(SC)s3)cc2)sc1-c1ccc(C)cc1		> 100		> 100	> 100	> 100		> 100	> 100			> 100	> 100					
CCCN(CCCC(NC(C)=O)C(=O)NCc1ccccc1)C(=O)N(CCCl)N=O (centres undefined)	43.1	46.6	28.1	64.6	12.7	43.3	71	49.7	12.6	46.7		17.5	> 100					
O=S(=O)(O)c1cc(O)c2c(N=Cc3ccccc3O)cc(S(=O)(=O)O)cc2c1		> 100		> 100	> 100	> 100		> 100	> 100			> 100	> 100					
N[C@H](C(=O)O)[C@H]1ON=C(Cl)[C@@H]1O	> 550	269	> 550	> 166	> 550	> 550	> 550	> 550	> 550	> 394	13.8			52.2	12.2	2.83	8.09	17.5
Cc1cccc2c(=O)c([Se]c3coc4c(C)cccc4c3=O)coc12	41.5	40.5	30.3	34.7	29.8	17.8	30.4	39.1	33.1	52.6		79						
CN(C)c1ccc(C(=C(c2ccc(N(C)C)cc2)c2ccc(N(C)C)cc2)c2ccc(N(C)C)cc2)cc1	41.5		70.9	> 100	44.7	27.8	> 100	20.8	36.1	42.4		30.8						
